Assay [1] deals with T1, TliA (thermostable lipase), displayed as INPNC-TliA (Pseudomonas fluorescens, UniProt Q9ZG91).
T1 sequence (Q9ZG91 1-476): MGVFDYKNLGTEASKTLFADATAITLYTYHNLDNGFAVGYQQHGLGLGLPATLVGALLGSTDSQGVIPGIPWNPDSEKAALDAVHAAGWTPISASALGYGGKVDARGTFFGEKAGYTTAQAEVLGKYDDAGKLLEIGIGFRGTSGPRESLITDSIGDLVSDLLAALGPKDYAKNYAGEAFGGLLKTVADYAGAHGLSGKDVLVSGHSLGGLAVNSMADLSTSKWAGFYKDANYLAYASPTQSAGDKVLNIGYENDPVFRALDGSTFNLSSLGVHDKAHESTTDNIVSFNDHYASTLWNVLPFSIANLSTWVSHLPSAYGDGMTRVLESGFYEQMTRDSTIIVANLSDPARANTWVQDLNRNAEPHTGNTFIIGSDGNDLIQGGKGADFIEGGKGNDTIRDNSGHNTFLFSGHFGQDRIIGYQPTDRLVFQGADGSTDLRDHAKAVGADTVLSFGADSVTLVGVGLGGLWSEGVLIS
The experiment in a line: whole-cell chiral resolution, HPLC. Type of assay: cell-based. Conditions: INPNC-TliA displayed on P. putida GM730/pJHC13 cells; 50 mM racemic substrate; two-phase PBS-isooctane; 25 °C; 72 h; R-selective.

Assay [2] addresses T1, TliA (thermostable lipase), displayed as INPNC-TliA. The experiment in a line: whole-cell lipase activity, spectrophotometric. It is filed as cell-based. Conditions: INPNC-TliA displayed on P. putida GM730/pJHC13 cells; PBS-washed; induced with 1 mM IPTG.

SMILES strings stand for the structures.

For `CC(C(=O)Oc1ccc([N+](=O)[O-])cc1)c1ccccc1` (racemic) [4-nitrophenyl 2-phenylpropionate], the “whole-cell chiral resolution, HPLC” value in assay [1] was “enantiomeric excesses of the surviving p-nitrophenyl 2-phenylpropionate and the product (R) 2-phenylpropionic acid”.
Regarding `CCCCCCCCCCCCCCCC(=O)Oc1ccc([N+](=O)[O-])cc1` [p-nitrophenyl palmitate], in assay [2], the “whole-cell lipase activity, spectrophotometric” value is reported as “whole-cell enzyme activities were measured with p-nitrophenyl palmitate (pNPP), which does not enter the cells”.
